The target of assay [1] is T1, Procollagen-lysine,2-oxoglutarate 5-dioxygenase 2 (Homo sapiens, UniProt O00469).
T1 sequence (O00469 whole entry): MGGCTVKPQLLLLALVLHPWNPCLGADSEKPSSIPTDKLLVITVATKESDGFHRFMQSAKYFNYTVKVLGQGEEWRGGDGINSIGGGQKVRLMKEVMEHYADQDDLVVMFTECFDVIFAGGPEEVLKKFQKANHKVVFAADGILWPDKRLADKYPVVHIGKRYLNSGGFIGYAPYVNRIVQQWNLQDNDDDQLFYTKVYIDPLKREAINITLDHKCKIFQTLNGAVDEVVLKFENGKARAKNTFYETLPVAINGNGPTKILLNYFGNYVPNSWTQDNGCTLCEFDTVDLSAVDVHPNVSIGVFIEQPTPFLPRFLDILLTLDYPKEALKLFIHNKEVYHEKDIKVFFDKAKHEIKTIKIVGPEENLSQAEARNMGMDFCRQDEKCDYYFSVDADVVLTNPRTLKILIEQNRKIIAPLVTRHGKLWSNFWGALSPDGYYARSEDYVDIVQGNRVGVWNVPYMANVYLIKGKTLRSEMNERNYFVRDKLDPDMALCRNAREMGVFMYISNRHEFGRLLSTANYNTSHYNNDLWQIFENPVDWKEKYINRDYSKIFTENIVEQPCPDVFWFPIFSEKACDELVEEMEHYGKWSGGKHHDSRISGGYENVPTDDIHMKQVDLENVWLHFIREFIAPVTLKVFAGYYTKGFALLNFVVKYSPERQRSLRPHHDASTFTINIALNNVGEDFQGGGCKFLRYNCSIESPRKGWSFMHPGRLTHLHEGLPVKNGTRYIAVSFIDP
The assay can be described thus: Inhibition of human recombinant LH2 expressed in CHO cells incubated for 30 mins by luciferase-based Succinate-GloTM JmjC Demethylase/Hydroxylase Assay. The class given is cell-based.

For assay [2], the target named is T2, Lysine-specific demethylase 4A (Homo sapiens) (UniProt O75164).
T2 sequence (whole entry): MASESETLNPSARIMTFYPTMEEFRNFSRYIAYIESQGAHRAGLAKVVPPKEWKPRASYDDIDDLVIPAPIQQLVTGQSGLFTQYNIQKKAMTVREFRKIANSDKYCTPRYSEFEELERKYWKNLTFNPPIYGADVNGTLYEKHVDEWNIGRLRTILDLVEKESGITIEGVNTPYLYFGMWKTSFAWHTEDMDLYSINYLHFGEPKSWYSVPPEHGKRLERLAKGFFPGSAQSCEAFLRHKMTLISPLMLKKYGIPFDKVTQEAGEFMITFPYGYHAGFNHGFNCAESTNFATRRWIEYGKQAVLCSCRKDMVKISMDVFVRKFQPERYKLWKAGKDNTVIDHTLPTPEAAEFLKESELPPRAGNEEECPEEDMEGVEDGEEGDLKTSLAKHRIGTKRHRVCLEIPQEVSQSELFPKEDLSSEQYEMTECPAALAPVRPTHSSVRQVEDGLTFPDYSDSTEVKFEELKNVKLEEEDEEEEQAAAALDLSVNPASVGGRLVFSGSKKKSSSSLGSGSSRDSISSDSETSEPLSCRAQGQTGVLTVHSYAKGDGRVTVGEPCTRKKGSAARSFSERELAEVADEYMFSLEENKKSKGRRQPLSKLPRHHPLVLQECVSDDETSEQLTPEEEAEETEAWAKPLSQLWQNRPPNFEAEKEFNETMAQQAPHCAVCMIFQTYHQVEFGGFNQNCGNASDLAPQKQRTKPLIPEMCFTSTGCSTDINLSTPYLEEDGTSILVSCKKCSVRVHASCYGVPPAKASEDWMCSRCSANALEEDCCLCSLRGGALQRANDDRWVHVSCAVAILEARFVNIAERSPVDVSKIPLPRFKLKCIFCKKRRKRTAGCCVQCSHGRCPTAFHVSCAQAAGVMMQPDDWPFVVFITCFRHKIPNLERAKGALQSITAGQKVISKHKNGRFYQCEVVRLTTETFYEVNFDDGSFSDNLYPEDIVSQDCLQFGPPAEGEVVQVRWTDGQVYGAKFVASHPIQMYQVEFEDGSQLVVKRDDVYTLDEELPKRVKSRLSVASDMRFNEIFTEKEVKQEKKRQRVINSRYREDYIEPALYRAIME
As to the kind of experiment: Inhibition of JMJD2A (unknown origin) at 11 uM by Succinate-Glo kit assay.

The species named for assay [3] is Homo sapiens. As to the kind of experiment: Selectivity ratio of IC50 for inhibition of human recombinant LH3 to IC50 for inhibition of human recombinant LH2.
Assay [4] has as its target T3, Multifunctional procollagen lysine hydroxylase and glycosyltransferase LH3 (Homo sapiens, UniProt O60568).
T3 sequence (O60568 whole entry): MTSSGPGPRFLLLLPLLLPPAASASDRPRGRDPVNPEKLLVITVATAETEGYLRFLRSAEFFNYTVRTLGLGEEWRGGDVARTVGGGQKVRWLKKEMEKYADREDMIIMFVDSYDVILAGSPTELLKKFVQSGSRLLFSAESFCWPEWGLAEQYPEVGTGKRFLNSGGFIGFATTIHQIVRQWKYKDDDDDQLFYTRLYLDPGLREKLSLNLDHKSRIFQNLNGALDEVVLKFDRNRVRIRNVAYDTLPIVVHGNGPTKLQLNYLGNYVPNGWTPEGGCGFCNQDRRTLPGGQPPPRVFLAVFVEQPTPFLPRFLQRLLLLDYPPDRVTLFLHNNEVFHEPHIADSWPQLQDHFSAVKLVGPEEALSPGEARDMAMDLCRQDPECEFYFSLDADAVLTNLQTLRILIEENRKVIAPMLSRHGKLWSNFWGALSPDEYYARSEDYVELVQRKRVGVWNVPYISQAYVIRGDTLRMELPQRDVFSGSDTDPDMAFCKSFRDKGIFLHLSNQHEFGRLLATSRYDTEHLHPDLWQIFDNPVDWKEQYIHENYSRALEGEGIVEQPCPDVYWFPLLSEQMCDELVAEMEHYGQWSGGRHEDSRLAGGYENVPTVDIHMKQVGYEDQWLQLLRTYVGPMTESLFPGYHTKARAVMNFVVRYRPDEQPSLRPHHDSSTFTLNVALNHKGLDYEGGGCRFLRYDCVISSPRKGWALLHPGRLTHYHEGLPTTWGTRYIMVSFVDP
As to the kind of experiment: Inhibition of human recombinant LH3 expressed in CHO cells incubated for 30 mins by luciferase-based Succinate-GloTM JmjC Demethylase/Hydroxylase Assay. The class given is cell-based.

In assay [5] the target is T4, Procollagen-lysine,2-oxoglutarate 5-dioxygenase 1 (Homo sapiens, UniProt Q02809).
T4 sequence (Q02809 whole entry): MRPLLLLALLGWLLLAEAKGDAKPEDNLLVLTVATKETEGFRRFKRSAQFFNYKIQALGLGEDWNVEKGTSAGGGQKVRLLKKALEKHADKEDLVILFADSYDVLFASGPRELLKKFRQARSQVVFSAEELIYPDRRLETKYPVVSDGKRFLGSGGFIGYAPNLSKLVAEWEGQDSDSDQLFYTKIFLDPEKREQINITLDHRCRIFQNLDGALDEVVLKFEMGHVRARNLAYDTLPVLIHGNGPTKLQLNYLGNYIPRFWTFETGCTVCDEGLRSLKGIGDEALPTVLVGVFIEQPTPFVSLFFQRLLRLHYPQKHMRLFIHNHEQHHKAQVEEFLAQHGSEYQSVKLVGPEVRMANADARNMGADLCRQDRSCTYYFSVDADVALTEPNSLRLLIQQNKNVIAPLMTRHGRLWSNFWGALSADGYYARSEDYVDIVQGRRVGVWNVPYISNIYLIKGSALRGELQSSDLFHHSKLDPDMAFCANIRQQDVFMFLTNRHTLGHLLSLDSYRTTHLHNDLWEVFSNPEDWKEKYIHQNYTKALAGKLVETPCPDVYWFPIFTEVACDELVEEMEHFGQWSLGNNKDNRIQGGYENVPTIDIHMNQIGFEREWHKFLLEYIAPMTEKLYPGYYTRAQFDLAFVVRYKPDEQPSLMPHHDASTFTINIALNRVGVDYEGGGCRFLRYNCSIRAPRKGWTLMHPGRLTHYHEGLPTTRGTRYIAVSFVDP
As to the kind of experiment: Inhibition of human recombinant LH1 expressed in CHO cells incubated for 30 mins by luciferase-based Succinate-GloTM JmjC Demethylase/Hydroxylase Assay. It counts as cell-based.

The species named for assay [6] is Homo sapiens. The assay can be described thus: Selectivity ratio of IC50 for inhibition of human recombinant LH1 to IC50 for inhibition of human recombinant LH2. Particulars: time 30.0 min.
In a further assay the test system is 344SQ. As to the kind of experiment: Antiproliferative activity against mouse wild type 344SQ cells assessed as reduction in cell viability observed after 48 hrs by CCK-8 assay. The class given is functional, cell-based.

These results are taken from ChEMBL document CHEMBL5365547, “Unleashing the Potential of 1,3-Diketone Analogues as Selective LH2 Inhibitors” (ACS Med Chem Lett, 2023).

Molecules are shown by their SMILES. Active and inactive are the calls of the source. No cut-off for these calls is given here. Bounds are passed on as bounds.

`O=C(CC(=O)c1cccnc1)c1ccc(C(F)(F)F)cc1`: the half-maximal inhibitory concentration (IC50) – broadly, the concentration that inhibits the measured activity by half – in assay [1] (cho) was “Not Active”.

Consider `O=C(CC(=O)c1nnn[nH]1)c1cccc(N2CCOCC2)c1`, for which the 50% inhibitory concentration (IC50) in assay [1] (read-out: IC50) is more than 10 µM.

`c1cc(-c2cc(-c3ccncc3)n[nH]2)cc(N2CCOCC2)c1`: the IC50 in assay [1] (read-out: IC50) is more than 10 µM.

Turning to `CN1CCN(c2cccc(C(=O)CC(=O)c3nnn[nH]3)c2)CC1`, the IC50 in assay [1] (read-out: IC50) was more than 10 µM.

Turning to `O=C(c1cccnc1)C1CCc2cc(F)ccc2C1=O` (stereo not drawn), in assay [1] (read-out: IC50), the IC50 is more than 10 µM.

`O=C(c1cccnc1)C1CCc2cc(Cl)ccc2C1=O` (stereo not drawn): the IC50 entry in assay [1] (cho) is reported as “Not Active”.

Take `O=C(CC(=O)c1ccncc1)c1ccccc1`: in assay [2], the inhibition result was “Active”. Also, the Selectivity ratio in the assay filed under Homo sapiens [3] came out at 5; in the assay filed under Homo sapiens [6], 6. Moreover, the figures for the 50% inhibitory concentration (IC50) in assay [4], in assay [5] and in assay [1] (read-out: IC50) were 5.2 µM, 6.4 µM and 1 µM, respectively.

As for `Cc1ccc(C(=O)CC(=O)c2cccc(N3CCOCC3)c2)cc1`, the IC50 entry in assay [1] (cho) is given as “Not Active”.

On to `O=C(CC(=O)c1cccnc1)c1ccccc1`, for which, in assay [1] (read-out: IC50), the IC50 was determined as 5 µM.

Regarding `O=C(CC(=O)c1cccnc1)c1ccc([N+](=O)[O-])cc1`, the IC50 in assay [1] (read-out: IC50) is more than 10 µM.

Regarding `O=C(CC(=O)C(F)(F)F)c1ccc([N+](=O)[O-])cc1`, the IC50 in assay [1] (read-out: IC50) is more than 10 µM.

For `CN1CCN(c2cccc(-c3cc(-c4ccncc4)n[nH]3)c2)CC1`, in assay [1] (read-out: IC50), the IC50 was more than 10 µM.

For the compound `CN1CCN(c2cccc(C(=O)CC(=O)c3ccncc3)c2)CC1`, in the assay with 344SQ, the result was inactive.
